Measured values taken from PubChem BioAssay AID608 (Sanford-Burnham Center for Chemical Genomics, 2007).
Active and inactive are the calls of the source. The rule behind the calls is not given here.

Each compound was assayed against Peptidyl-prolyl cis-trans isomerase FKBP1A (Homo sapiens) (UniProt P62942) (assay: small-molecule binding to FKBP12 – biophysical, NMR detection (AID 608)). Conditions: purified FKBP12.
Peptidyl-prolyl cis-trans isomerase FKBP1A (Homo sapiens), sequence (P62942 whole entry, looked up): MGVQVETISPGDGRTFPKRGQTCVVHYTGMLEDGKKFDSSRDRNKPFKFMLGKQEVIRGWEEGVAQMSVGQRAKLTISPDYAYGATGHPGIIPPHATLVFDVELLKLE

| Structure (SMILES) | Kd |
| --- | --- |
| O=C(O)C1(O)C[C@@H](O)C(O)[C@H](O)C1 (stereo partly specified) | > 4 mM (inactive) |
| Cn1ncc(C(=O)NC2CCCCC2)c1Cl | > 4 mM (inactive) |
| CN1CCN(C(=O)C2CCCNC2)CC1 (stereo unspecified) | > 4 mM (inactive) |
| Cc1ccc(C)n1NC(=O)c1cccs1 | > 4 mM (inactive) |
| COc1cc2nc[nH]c(=O)c2cc1OC | > 4 mM (inactive) |
| NC(=O)CSc1ncnc2ccccc12 | > 4 mM (inactive) |
| NC(=O)Cn1nc(-c2ccc(F)cc2)ccc1=O | > 4 mM (inactive) |
| NC(CCC(=O)Nc1ccc([N+](=O)[O-])cc1)C(=O)O (stereo unspecified) | > 4 mM (inactive) |
| O=C(c1ccccc1F)N1CCN(c2ccccc2)CC1 | > 4 mM (inactive) |
| OC1CCNC2CCCCC12 (stereo unspecified) | > 4 mM (inactive) |
| COc1cnn(-c2ccccc2)c(=O)c1N(C)C | > 4 mM (inactive) |
| O=C1CSC(=Nc2ccc(O)cc2)N1 | > 4 mM (inactive) |
| C=CCSCC=C | > 4 mM (inactive) |
| COc1cc(S(=O)(=O)N(C)C)ccc1F | > 4 mM (inactive) |
| CCOC(=O)c1c(-c2ccncc2)csc1N | > 4 mM (inactive) |
| Nc1nc(O)c(C2=c3cc(Cl)ccc3=NC2=O)s1 | > 4 mM (inactive) |
| CSc1cccc(NC(=O)c2c(Cl)cnn2C)c1 | > 4 mM (inactive) |
| O=C1NCCCC1C(=O)N1CCCCC1 (stereo unspecified) | > 4 mM (inactive) |
| Cc1ccc(NC(=O)C2CCCNC2=O)nc1 (stereo unspecified) | > 4 mM (inactive) |
| Cc1cc(N)n(C2CCOC(C)(C)C2)n1 (stereo unspecified) | > 4 mM (inactive) |
| Cc1occc1C(=O)Nc1sccc1C(N)=O | > 4 mM (inactive) |

| Structure (SMILES) | Kd |
| --- | --- |
| Cc1oc(S(=O)(=O)N2CCCCC2)cc1C(=O)O | > 4 mM (inactive) |
| O=C(O)C1CC(=O)N(Cc2ccc(F)cc2)C1 (stereo unspecified) | > 4 mM (inactive) |
| CCc1noc(C)c1C(=O)N1CCCC1 | > 4 mM (inactive) |
| CCc1sc(C(=O)NC)cc1Br | > 4 mM (inactive) |
| COC(=O)c1oc2ccc(Cl)cc2c1NC(C)=O | > 4 mM (inactive) |
| Cc1cc(N2CCN(C)CC2)ncn1 | > 4 mM (inactive) |
| Cc1nc2sccn2c1C(=O)O | > 4 mM (inactive) |
| CCc1ccc(C(=O)N2CCCC2)s1 | > 4 mM (inactive) |
| COc1ccc(/C=C2/N=C(N)SC2=O)cc1 | > 4 mM (inactive) |
| Cc1ccc(C(=O)n2cnnc2N)cc1C | > 4 mM (inactive) |
| O=C(CNC(=O)c1cccs1)NC1=NCCS1 | > 4 mM (inactive) |
| COc1ccc(/C=C2/C(=O)N=C(N)N2C)cc1OC | > 4 mM (inactive) |
| O=C(COc1ccc(F)cc1)N1CCOCC1 | inactive |
| C=C(C)[C@H]1Cc2c(ccc3c2O[C@@H]2COc4cc(OC)c(OC)cc4[C@@H]2C3=O)O1 | > 4 mM (inactive) |
| COc1ccc(NS(=O)(=O)c2ccc(N)cc2)nn1 | > 4 mM (inactive) |
| C/C(N)=C/C(=O)N1CCCCC1 | > 4 mM (inactive) |
| COC(=O)CSc1n[nH]c(N)n1 | > 4 mM (inactive) |
| OCc1cc2ccccc2o1 | > 4 mM (inactive) |
| Cc1cc(N2CCCC2=O)c(N)cc1N | > 4 mM (inactive) |
| COc1ccc(S(=O)(=O)Nc2ccccn2)c(C)c1C | > 4 mM (inactive) |
| NN1C(=O)CSC1=Nc1ccccc1 | > 4 mM (inactive) |

| Structure (SMILES) | Kd |
| --- | --- |
| COc1ccc(CN2CCC(O)CC2)c(O)c1 | > 4 mM (inactive) |
| NC(=O)CN=Cc1c(O)[nH]c2ccccc12 | > 4 mM (inactive) |
| Cc1cc(C(=O)NCc2cccs2)c(C)o1 | > 4 mM (inactive) |
| O=c1[nH]cc(Nc2ccccc2)c(=O)[nH]1 | > 4 mM (inactive) |
| Cn1nccc1N | > 4 mM (inactive) |
| N#CCSc1nnc2ccc3ccccc3n12 | > 4 mM (inactive) |
| Cc1ccc(CN2CCNC(=O)C2CC(=O)O)o1 (stereo unspecified) | > 4 mM (inactive) |
| CC1=CCc2c(cc3oc(C)cc(=O)c3c2O)OC1 | > 4 mM (inactive) |
| O=C(O)c1cn(-c2ccccc2)nc1-c1ccncc1 | > 4 mM (inactive) |
| COC(=O)C1[C@H]2C[C@H]3c4[nH]c5ccccc5c4CCN3C[C@@H]2CC[C@@H]1O (stereo partly specified) | > 4 mM (inactive) |
| CC(=O)N1CCN(C2CCSC2)CC1 (stereo unspecified) | > 4 mM (inactive) |
| Cc1ccc(-c2nnc3sc(-c4ccncc4)nn23)cc1 | > 4 mM (inactive) |
| CC(=O)c1c(C)nc(-c2cccs2)n1O | > 4 mM (inactive) |
| CC(N)C(=O)c1ccco1 (stereo unspecified) | > 4 mM (inactive) |
| CC(=O)Oc1cccc2ccc(=O)[nH]c12 | > 4 mM (inactive) |
| COc1cccc(-c2nn(-c3ccccc3)cc2CO)c1 | > 4 mM (inactive) |
| O=C1CCC([N+](=O)[O-])C(c2ccccc2F)N1 (stereo unspecified) | > 4 mM (inactive) |
| C=CCn1c(N)c(C(=O)N2CCOCC2)sc1=S | > 4 mM (inactive) |
| CCOc1ccc(N2C(=O)CCC2=O)cc1 | > 4 mM (inactive) |
